Laboratory results taken from publication PMC3983353 (Journal of Medicinal Chemistry, 2014).
One block for each molecule: values may come before it.

Legend:
rat nNOS = rat nNOS (Rattus norvegicus, UniProt P29476)
[1] = system: metastatic melanoma A375 cell line; conditions: read-out: EC50 in A375 cells; cited from earlier work
Sk-Mel28 cells = conditions: read-out: EC50 in Sk-Mel28 cells; cited from earlier work
immortalized melanocytes = conditions: cannot calculate = toxic even at lower concentration and no dose–activity curve occurred

Chain of rat nNOS (P29476 whole entry): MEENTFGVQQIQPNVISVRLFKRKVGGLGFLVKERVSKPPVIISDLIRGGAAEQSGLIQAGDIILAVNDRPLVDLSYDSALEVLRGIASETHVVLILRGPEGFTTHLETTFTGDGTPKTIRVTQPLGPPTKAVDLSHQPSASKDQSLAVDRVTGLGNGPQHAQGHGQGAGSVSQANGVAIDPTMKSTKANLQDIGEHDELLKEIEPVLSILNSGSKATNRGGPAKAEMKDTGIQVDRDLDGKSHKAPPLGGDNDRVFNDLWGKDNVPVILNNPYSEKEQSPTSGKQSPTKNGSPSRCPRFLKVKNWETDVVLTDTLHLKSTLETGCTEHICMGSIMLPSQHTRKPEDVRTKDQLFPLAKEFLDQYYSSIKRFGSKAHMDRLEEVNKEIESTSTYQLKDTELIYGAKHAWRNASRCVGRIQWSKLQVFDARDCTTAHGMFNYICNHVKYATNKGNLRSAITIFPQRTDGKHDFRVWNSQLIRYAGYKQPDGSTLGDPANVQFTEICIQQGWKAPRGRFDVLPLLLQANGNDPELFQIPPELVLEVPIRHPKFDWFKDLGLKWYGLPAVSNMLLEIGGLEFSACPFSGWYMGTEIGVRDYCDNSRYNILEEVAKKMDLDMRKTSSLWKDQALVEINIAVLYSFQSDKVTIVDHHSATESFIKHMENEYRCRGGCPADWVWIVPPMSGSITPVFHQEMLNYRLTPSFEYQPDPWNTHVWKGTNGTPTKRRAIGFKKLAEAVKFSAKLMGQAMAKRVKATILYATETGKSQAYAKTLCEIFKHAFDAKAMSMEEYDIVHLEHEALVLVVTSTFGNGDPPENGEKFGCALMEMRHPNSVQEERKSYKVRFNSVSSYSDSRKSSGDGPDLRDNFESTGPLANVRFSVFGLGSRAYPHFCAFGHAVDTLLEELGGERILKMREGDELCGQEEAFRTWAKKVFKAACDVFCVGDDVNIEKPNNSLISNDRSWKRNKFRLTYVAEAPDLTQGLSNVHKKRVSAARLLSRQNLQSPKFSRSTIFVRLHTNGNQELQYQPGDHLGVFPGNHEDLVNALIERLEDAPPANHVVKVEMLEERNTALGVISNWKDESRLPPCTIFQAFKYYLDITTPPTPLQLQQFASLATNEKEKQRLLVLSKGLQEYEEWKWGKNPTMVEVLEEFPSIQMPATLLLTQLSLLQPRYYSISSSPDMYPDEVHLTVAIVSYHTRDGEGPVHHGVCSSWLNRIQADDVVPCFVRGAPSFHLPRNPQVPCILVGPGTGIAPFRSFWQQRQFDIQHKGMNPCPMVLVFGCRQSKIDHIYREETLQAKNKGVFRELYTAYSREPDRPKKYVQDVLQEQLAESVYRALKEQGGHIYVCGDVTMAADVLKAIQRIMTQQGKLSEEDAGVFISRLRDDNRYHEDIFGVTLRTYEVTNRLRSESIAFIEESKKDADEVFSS

lower nNOS potency than 11 (rat nNOS): 2 fold
Compound: N=C(Nc1cccc(OCCCOc2cccc(NC(=N)c3cccs3)c2)c1)c1cccs1 [compound 12, N,N′-((Propane-1,3-diylbis(oxy))bis(3,1-phenylene))bis(thiophene-2-carboximidamide)]

lower nNOS potency than 16 (rat nNOS): ~7 fold
Compound: CCN(CCc1cccc(F)c1)Cc1cccc(NC(=N)c2cccs2)c1 [compound 17, N-(3-((Ethyl(3-fluorophenethyl)amino)methyl)phenyl)thiophene-2-carboximidamide]

Compound: N.N.[Cl][Pt][Cl] [cisplatin]
EC50 [1]: 4.2 µM
EC50 (Sk-Mel28 cells): 14.3 µM

Compound: N=C(Nc1cccc(CCNCc2cccc(NC(=N)c3cccs3)c2)c1)c1cccs1 [compound 13, N-(3-(2-((3-(Thiophene-2-carboximidamido)benzyl)amino)ethyl)phenyl)thiophene-2-carboximidamide]
EC50 immortalized melanocytes (immortalized melanocytes): cannot calculate ^b
